What was measured:
[1] = test system: bamyardgrass; assay: Test B flood test barnyardgrass; type: in vivo, Echinochloa crus-galli
Procedure, shortened: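 Read-out is a visual response score from 0 (no effect) to 10 (complete control), assigned by comparison with untreated controls. Treatment was applied at the 2-leaf stage, and plants stayed in the greenhouse for twelve to sixteen days before scoring.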

[2] = test system: bedstraw; assay: Test B pre/postemergence bedstraw; type: in vivo, Galium aparine; conditions: Postemergence; for Bedstraw plant response rating: scale of 0 to 10, 0 is no effect, 10 is complete control
Procedure, shortened: (§1)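 Test chemicals in a non-phytotoxic solvent mixture with surfactant were sprayed preemergence onto planted seeds and postemergence onto plants 2 to 18 cm tall (1- to 4-leaf stage). After twelve to sixteen days in a greenhouse, injury was visually rated against untreated controls from 0 (no effect) to 10 (complete control).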

[3] = test system: morningglory; assay: Test B pre/postemergence morningglory; type: in vivo, Ipomoea hederacea
Procedure, shortened: as §1

[4] = test system: wild oat; assay: Test B pre/postemergence wild oat; type: in vivo, Avena fatua
Procedure, shortened: as §1

[5] = test system: surinam grass; assay: Test B pre/postemergence surinam grass; type: in vivo, Brachiaria decumbens
Procedure, shortened: as §1

[6] = test system: sugar beet; assay: Test B pre/postemergence sugar beet; type: in vivo, Beta vulgaris
Procedure, shortened: as §1

[7] = test system: purple nutsedge; assay: Test B pre/postemergence purple nutsedge; type: in vivo, Cyperus rotundus
Procedure, shortened: as §1

[8] = test system: crabgrass; assay: Test B pre/postemergence crabgrass; type: in vivo, Digitaria sanguinalis
Procedure, shortened: as §1

[9] = test system: velvetleaf; assay: Test B pre/postemergence velvetleaf; type: in vivo, Abutilon theophrasti
Procedure, shortened: as §1

[10] = test system: corn; assay: Test B pre/postemergence corn; type: in vivo, Zea mays
Procedure, shortened: as §1

[11] = Postemergence, Rate 62 g/ha, scale of 0 to 10, 0 is no effect, 10 is complete control
[12] = Postemergence, Rate 125 g/ha, scale of 0 to 10 where 0 is no effect and 10 is complete control
[13] = Postemergence, Rate 250 g/ha, scale of 0 to 10, 0 is no effect, 10 is complete control
[14] = Preemergence, Rate 62 g/ha, scale 0 to 10 (0 no effect, 10 complete control)
[15] = Preemergence, Rate 125 g/ha, scale of 0 to 10 where 0 is no effect and 10 is complete control
[16] = Preemergence, Rate 500 g/ha, scale of 0 to 10 where 0 is no effect and 10 is complete control
[17] = Postemergence, Rate 500 g/ha, scale of 0 to 10 where 0 is no effect and 10 is complete control

SMILES: CC(C)N(C(=O)n1oc(=O)n(CC(=O)N(C)C)c1=O)c1ccc(F)cc1 [Compound 586]
- Plant response rating, Barnyardgrass (0 to 10 scale, 0 is no effect, 10 is complete control) ([1]; Rate 62 g/ha, flood test species, Pre-emergence, visual evaluation after twelve to sixteen days): 0
- Barnyardgrass plant response rating (0 to 10 scale, 0 is no effect, 10 is complete control) ([1]; Rate 125 g/ha, under heading Pre-emergence, flood test species, visual evaluation after twelve to sixteen days): 0
- Barnyardgrass plant response rating ([1]; Rate 250 g/ha, Pre-emergence (flood test species), scale 0 to 10, 0 is no effect, 10 is complete control): 0
- Barnyardgrass plant response rating ([1]; Rate 500 g/ha, Pre-emergence section of Table B, 0 to 10 scale (0 no effect, 10 complete control)): 0
- Bedstraw plant response rating ([2]; Rate 62 g/ha): 0
- Plant response rating, Bedstraw ([2]; Rate 125 g/ha, scale of 0 to 10 where 0 is no effect and 10 is complete control): 0
- Bedstraw plant response rating ([2]; Rate 250 g/ha): 0
- Morningglory plant response rating [3, 11]: 6
- Plant response rating, Morningglory [3, 12]: 10
- Morningglory plant response rating [3, 13]: 10
- Morningglory plant response rating [3, 14]: 0
- Morningglory plant response rating [3, 15]: 0
- Morningglory plant response rating [3, 16]: 4
- Plant response rating, Wild oats [4, 12]: 0
- Wild oats plant response rating [4, 13]: 0
- Plant response rating, Wild oats [4, 17]: 0
- Wild oats plant response rating [4, 14]: 0
- Wild oats plant response rating [4, 15]: 3
- Wild oats plant response rating [4, 16]: 10
- B. signalgrass plant response rating [5, 11]: 0
- Plant response rating, B. signalgrass [5, 12]: 0
- B. signalgrass plant response rating [5, 13]: 3
- Plant response rating, B. signalgrass [5, 17]: 7
- B. signalgrass plant response rating [5, 14]: 0
- B. signalgrass plant response rating [5, 15]: 5
- B. signalgrass plant response rating (0 to 10 scale, 0 is no effect, 10 is complete control) ([5]; Preemergence, Rate 250 g/ha): 8
- B. signalgrass plant response rating [5, 16]: 10
- Plant response rating, Sugarbeets [6, 12]: 0
- Sugarbeets plant response rating [6, 13]: 0
- Plant response rating, Sugarbeets [6, 17]: 0
- Sugarbeets plant response rating [6, 14]: 0
- Sugarbeets plant response rating [6, 15]: 0
- Sugarbeets plant response rating [6, 16]: 8
- Nutsedge plant response rating [7, 11]: 0
- Plant response rating, Nutsedge [7, 12]: 0
- Nutsedge plant response rating [7, 13]: 0
- Plant response rating, Nutsedge [7, 17]: 0
- Nutsedge plant response rating [7, 14]: 0
- Nutsedge plant response rating [7, 15]: 0
- Nutsedge plant response rating [7, 16]: 2
- Crabgrass plant response rating [8, 11]: 2
- Plant response rating, Crabgrass [8, 12]: 3
- Crabgrass plant response rating [8, 13]: 8
- Plant response rating, Crabgrass [8, 17]: 9
- Crabgrass plant response rating [8, 14]: 9
- Crabgrass plant response rating [8, 15]: 9
- Crabgrass plant response rating [8, 16]: 10
- Plant response rating, Velvetleaf [9, 12]: 0
- Velvetleaf plant response rating [9, 13]: 0
- Plant response rating, Velvetleaf [9, 17]: 1
- Velvetleaf plant response rating [9, 14]: 0
- Velvetleaf plant response rating [9, 15]: 0
- Velvetleaf plant response rating [9, 16]: 7
- Corn plant response rating [10, 11]: 0
- Plant response rating, Corn [10, 12]: 0
- Corn plant response rating [10, 13]: 2
- Plant response rating, Corn [10, 17]: 3
- Corn plant response rating [10, 14]: 0
- Corn plant response rating [10, 15]: 0
- Corn plant response rating (0 to 10 scale) ([10]; Preemergence, Rate 250 g/ha): 0
- Corn plant response rating [10, 16]: 0
